These results are taken from paper PMC5840146, “Structure-Activity Relationship Analysis of 3-Phenylcoumarin-Based Monoamine Oxidase B Inhibitors” (Frontiers in Chemistry, 2018).

Where “and” joins values, the source holds several entries; their conditions need not be identical. Identical values can stand only once.

Assay type in all cases: biochemical
The target of one experiment is T1, MAO-B (Homo sapiens, UniProt P27338).
T1 construct: purchased Sigma-Aldrich
T1 sequence (P27338 1-520): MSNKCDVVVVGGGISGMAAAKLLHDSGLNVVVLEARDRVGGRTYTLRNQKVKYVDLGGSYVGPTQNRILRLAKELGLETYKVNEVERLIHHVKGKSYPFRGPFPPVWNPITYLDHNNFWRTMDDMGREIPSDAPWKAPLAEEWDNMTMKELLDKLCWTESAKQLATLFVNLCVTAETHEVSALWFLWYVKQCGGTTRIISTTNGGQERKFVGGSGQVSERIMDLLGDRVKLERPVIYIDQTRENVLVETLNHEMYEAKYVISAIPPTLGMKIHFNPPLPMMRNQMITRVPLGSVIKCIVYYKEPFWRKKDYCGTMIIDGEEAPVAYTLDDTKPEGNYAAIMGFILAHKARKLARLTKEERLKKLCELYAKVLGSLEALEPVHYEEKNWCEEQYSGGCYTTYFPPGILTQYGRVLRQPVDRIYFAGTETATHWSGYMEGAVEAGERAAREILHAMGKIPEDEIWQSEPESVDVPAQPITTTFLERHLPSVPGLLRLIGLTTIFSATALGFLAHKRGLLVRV
The experiment is described as follows: continuous spectrophotometric MAO-B inhibition assay. Particulars: for LiPE: LiPE = pIC50 - QPlogPo/w, new analogs and pargyline; for IC50: dilution series 50 μM to 1 nM, duplicates, read-out: MAO-B inhibition IC50; for MAO-B inhibition %: 10 µM, 2h.

For the next experiment, the target named is T2, recombinant human HSD1 (Homo sapiens, UniProt P14061).
T2 construct: made in house; host or cells: Sf9 insect cells
T2 sequence (P14061 1-328): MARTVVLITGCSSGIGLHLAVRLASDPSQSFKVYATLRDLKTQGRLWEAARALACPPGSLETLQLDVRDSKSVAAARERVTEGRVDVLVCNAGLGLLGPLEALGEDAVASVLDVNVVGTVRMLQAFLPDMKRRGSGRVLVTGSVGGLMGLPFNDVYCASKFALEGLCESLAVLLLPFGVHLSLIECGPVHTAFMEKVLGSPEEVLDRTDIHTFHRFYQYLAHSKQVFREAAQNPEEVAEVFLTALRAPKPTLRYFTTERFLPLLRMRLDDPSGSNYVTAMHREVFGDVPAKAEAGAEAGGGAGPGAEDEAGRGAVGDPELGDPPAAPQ
Description: HSD1 inhibition by HPLC with tritium labeled estrone/estradiol. As to conditions: 1 μM.

For another experiment, the target named is T3, MAO-A (Homo sapiens, UniProt P21397).
T3 construct: purchased Sigma-Aldrich
T3 sequence (P21397 1-527): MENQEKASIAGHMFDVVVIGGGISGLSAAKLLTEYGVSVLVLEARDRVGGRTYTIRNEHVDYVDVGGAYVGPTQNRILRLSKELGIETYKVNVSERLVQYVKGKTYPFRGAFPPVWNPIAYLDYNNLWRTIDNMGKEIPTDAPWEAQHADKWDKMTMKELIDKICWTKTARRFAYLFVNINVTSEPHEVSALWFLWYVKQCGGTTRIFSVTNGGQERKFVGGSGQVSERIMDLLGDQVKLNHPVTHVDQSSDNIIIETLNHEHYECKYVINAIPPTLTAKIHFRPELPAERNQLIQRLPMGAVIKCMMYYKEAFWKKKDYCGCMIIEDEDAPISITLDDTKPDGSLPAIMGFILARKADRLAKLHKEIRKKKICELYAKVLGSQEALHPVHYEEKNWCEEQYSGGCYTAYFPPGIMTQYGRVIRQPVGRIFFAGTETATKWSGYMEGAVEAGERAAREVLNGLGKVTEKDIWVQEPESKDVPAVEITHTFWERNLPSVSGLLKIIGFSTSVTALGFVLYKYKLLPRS
The experiment is described as follows: continuous spectrophotometric MAO-A inhibition assay. As to conditions: for MAO-A inhibition %: 100 µM, 1h.

What is called inhibition is the relative decrease from the control value, in per cent. Broadly, the IC50 is the concentration at which inhibition is half-maximal. `COc1ccc2cc(-c3cc(F)c(F)cc3F)c(=O)oc2c1` [derivative 16, 7-methoxy-3-(2,4,5-trifluorophenyl)-2H-chromen-2-one]: at MAO-B, the inhibition at 10 µM came to 77.6%, the LiPE was 2.13 and the IC50 stood at 1430 nM. The inhibition at 1 µM on recombinant human HSD1 was found to be 33%.

Regarding `COc1ccc2oc(=O)c(-c3ccc(F)cc3)cc2c1` [derivative 21, 3-(4-fluorophenyl)-6-methoxy-2H-chromen-2-one], on MAO-B, the inhibition at 10 µM came to 88.8%, the LiPE was 3.04 and the IC50 stood at 433 nM. The inhibition at 100 µM on MAO-A was found to be 0%. At recombinant human HSD1, the inhibition at 1 µM turned out to be 0%.

Consider `COc1ccc2oc(=O)c(-c3ccc(N(C)C)cc3)cc2c1` [derivative 18, 3-(4-(dimethylamino)phenyl)-6-methoxy-2H-chromen-2-one], for which, at MAO-B, the inhibition at 10 µM was determined as 93.9%, the LiPE was determined as 2.72 and the IC50 worked out at 617 nM. In addition, the inhibition at 100 µM at MAO-A was 0%. Besides, the inhibition at 1 µM on recombinant human HSD1 amounted to 1%.

Turning to `Cc1ccc2oc(=O)c(-c3ccc(C(F)(F)F)cc3)cc2c1` [derivative 5, 6-methyl-3-(4-(trifluoromethyl)phenyl)-2H-chromen-2-one], on MAO-B, the inhibition at 10 µM came to 105%, the LiPE is recorded as 2.11 and the IC50 came to 343 nM. Besides, the inhibition at 100 µM at MAO-A worked out at 0%. In addition, at recombinant human HSD1, the inhibition at 1 µM was 0%.

In the case of `O=c1oc2ccc(O)cc2cc1-c1ccc(F)cc1` [derivative 24, 3-(4-fluorophenyl)-6-hydroxy-2H-chromen-2-one], on MAO-B, the inhibition at 10 µM was 89.1%, the LiPE is on record as 3.37 and the IC50 is 1060 nM. The inhibition at 100 µM against MAO-A was 14.2%. Moreover, the inhibition at 1 µM on recombinant human HSD1 stood at 20%.

`O=c1oc2ccccc2cc1-c1cccc(O)c1` [derivative 31] gave an MAO-B inhibition % on MAO-B of 49.60%. Also, the MAO-A inhibition % on MAO-A amounted to 4.14%. Also, the HSD1 inhibition % at recombinant human HSD1 is 56.00%.

Take `COc1ccc(-c2cc3ccccc3oc2=O)cc1` [derivative 36]: the MAO-B inhibition % at MAO-B is on record as 41.12%. Also, on MAO-A, the MAO-A inhibition % is listed as 0.87%. For the same molecule, the HSD1 inhibition % on recombinant human HSD1 is on record as 3.80%.

Turning to `COc1ccc2oc(=O)c(-c3cc(F)c(F)cc3F)cc2c1` [derivative 15, 6-methoxy-3-(2,4,5-trifluorophenyl)-2H-chromen-2-one], on MAO-B, the inhibition at 10 µM stood at 87.2%, the LiPE is recorded as 2.80 and the IC50 worked out at 292 nM. The inhibition at 100 µM against MAO-A was 0%. The inhibition at 1 µM on recombinant human HSD1 amounted to 12%.

`O=c1oc2ccc(O)cc2cc1-c1cccc(O)c1` [derivative 38]: the MAO-B inhibition % at MAO-B is 27.16%. The same molecule came in with an MAO-A inhibition % on MAO-A of 13.11%. Also, the HSD1 inhibition % at recombinant human HSD1 is 49.10%.

Turning to `COc1ccc2oc(=O)c(-c3ccc(Oc4ccc(F)cc4)cc3)cc2c1` [derivative 46], the MAO-B inhibition % at MAO-B turned out to be 19.73%. Moreover, the MAO-A inhibition % on MAO-A is listed as 8.11%. In addition, at recombinant human HSD1, the HSD1 inhibition % came to 0.00%.

The molecule `COc1cccc(-c2cc3ccc(OC)cc3oc2=O)c1` [derivative 25] returned an MAO-B inhibition % on MAO-B of 67.49%. In addition, the MAO-A inhibition % on MAO-A is 0.00%. For the same molecule, the HSD1 inhibition % at recombinant human HSD1 was 3.50%.

For `COc1ccc2oc(=O)c(-c3ccc(O)c(F)c3)cc2c1` [derivative 22, 3-(3-fluoro-4-hydroxyphenyl)-6-methoxy-2H-chromen-2-one], on MAO-B, the inhibition at 10 µM was 94.9%, the LiPE is given as 3.35 and the IC50 was 831 nM. Further, the inhibition at 100 µM against MAO-A amounted to 0%. Besides, the inhibition at 1 µM at recombinant human HSD1 was 54%.

Molecule `Cc1ccc(-c2cc3ccc(O)cc3oc2=O)cc1` [derivative 27] displayed an MAO-B inhibition % at MAO-B of 61.91%. The molecule further showed an MAO-A inhibition % at MAO-A of 43.83%. Also, the HSD1 inhibition % at recombinant human HSD1 stood at 12.50%.

Consider `Cc1ccc2oc(=O)c(-c3ccc(F)cc3)cc2c1` [derivative 23, 3-(4-fluorophenyl)-6-methyl-2H-chromen-2-one], for which, on MAO-B, the inhibition at 10 µM amounted to 83.5%, the LiPE turned out to be 2.46 and the IC50 was determined as 902 nM. The inhibition at 100 µM against MAO-A stood at 0%. In addition, on recombinant human HSD1, the HSD1 inhibition % amounted to 11% and the inhibition at 1 µM was in the range of 12 to 33%.

`COc1cccc(-c2cc3cc(OC)ccc3oc2=O)c1` [derivative 8, 6-methoxy-3-(3-methoxyphenyl)-2H-chromen-2-one]: at MAO-B, the inhibition at 10 µM stood at 112%; the LiPE stood at 3.53; the IC50 is ~230 nM and 230 nM and 231 nM. In addition, the inhibition at 100 µM at MAO-A worked out at 0%. On recombinant human HSD1, the inhibition at 1 µM worked out at 0%.

For the molecule `O=c1oc2cc(O)ccc2cc1-c1ccc(O)cc1` [derivative 30], the MAO-B inhibition % at MAO-B turned out to be 52.68%. This molecule displayed an MAO-A inhibition % at MAO-A of 0.00%. In addition, the HSD1 inhibition % at recombinant human HSD1 came out at 48.20%.

For the molecule `O=c1oc2cc(O)ccc2cc1-c1ccc(F)cc1` [derivative 39], the MAO-B inhibition % on MAO-B was found to be 26.44%. At MAO-A, the MAO-A inhibition % is on record as 12.56%. The HSD1 inhibition % on recombinant human HSD1 is 0.00%.

For the molecule `COc1ccc(-c2cc3cccc(O)c3oc2=O)cc1` [derivative 33], the MAO-B inhibition % on MAO-B stood at 47.64%. The same molecule gave an MAO-A inhibition % on MAO-A of 3.66%. In addition, the HSD1 inhibition % on recombinant human HSD1 stood at 76.70%.

On to `CC(=O)Oc1ccc2cc(-c3ccc(F)cc3)c(=O)oc2c1` [derivative 28], for which, on MAO-B, the MAO-B inhibition % is 59.20%. This molecule also gave an MAO-A inhibition % on MAO-A of 0.00%. In addition, on recombinant human HSD1, the HSD1 inhibition % worked out at 0.30%.

For the molecule `COc1ccc2cc(-c3ccc(O)c(F)c3)c(=O)oc2c1` [derivative 20, 3-(3-fluoro-4-hydroxyphenyl)-7-methoxy-2H-chromen-2-one], at MAO-B, the inhibition at 10 µM turned out to be 101%, the LiPE stood at 3.70 and the IC50 stood at 391 nM. The inhibition at 100 µM on MAO-A was 0%. Further, the inhibition at 1 µM at recombinant human HSD1 was 46%.

Regarding `O=c1oc2ccccc2cc1-c1ccc(O)cc1` [derivative 29], the MAO-B inhibition % at MAO-B was determined as 53.65%. Moreover, the MAO-A inhibition % on MAO-A stood at 0.00%. In addition, the HSD1 inhibition % on recombinant human HSD1 came out at 5.40%.

As for `O=c1oc2cc(O)ccc2cc1-c1ccccc1` [derivative 41], at MAO-B, the “MAO-B inhibition (in words)” value is listed as “activity is lost” and the MAO-B inhibition % was determined as 23.82%. Further, on MAO-A, the MAO-A inhibition % was determined as 9.52%.

As to `COc1ccc(-c2cc3ccc(O)cc3oc2=O)cc1` [derivative 12, 7-hydroxy-3-(4-methoxyphenyl)-2H-chromen-2-one], at MAO-B, the inhibition at 10 µM is 85.9%, the LiPE came out at 3.53 and the IC50 is 955 nM. Further, the inhibition at 100 µM against MAO-A was determined as 24.6%. For the same molecule, the inhibition at 1 µM on recombinant human HSD1 was found to be 3%.

On MAO-B, `O=c1oc2ccc(O)cc2cc1-c1ccc(O)cc1` [derivative 48] registered an MAO-B inhibition % of 15.50%. The molecule also showed an MAO-A inhibition % on MAO-A of 0.00%. The HSD1 inhibition % on recombinant human HSD1 is 83.90%.

Turning to `COc1cccc(-c2cc3ccccc3oc2=O)c1` [derivative 11, 3-(3-methoxyphenyl)-2H-chromen-2-one], at MAO-B, the inhibition at 10 µM is 90.3%, the LiPE is given as 3.04 and the IC50 came out at 798 nM. For the same molecule, on MAO-A, the inhibition at 100 µM came out at 0%. Also, the inhibition at 1 µM at recombinant human HSD1 came out at 4%.
